Molecular target: T1, Legumain (Homo sapiens, UniProt Q99538)
T1 sequence (Q99538 whole entry): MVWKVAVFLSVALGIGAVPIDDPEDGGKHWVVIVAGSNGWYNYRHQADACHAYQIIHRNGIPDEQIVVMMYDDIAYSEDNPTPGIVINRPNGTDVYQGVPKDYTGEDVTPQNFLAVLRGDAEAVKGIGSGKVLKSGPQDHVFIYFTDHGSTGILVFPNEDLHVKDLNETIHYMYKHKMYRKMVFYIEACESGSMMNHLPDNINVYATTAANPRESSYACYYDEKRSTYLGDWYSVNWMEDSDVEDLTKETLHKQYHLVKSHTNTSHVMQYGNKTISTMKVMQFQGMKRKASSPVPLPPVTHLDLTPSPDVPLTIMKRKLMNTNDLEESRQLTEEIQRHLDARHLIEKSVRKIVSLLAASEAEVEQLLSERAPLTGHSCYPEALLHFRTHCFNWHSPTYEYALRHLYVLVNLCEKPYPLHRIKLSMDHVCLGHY
Assay: Inhibition of human 8His-tagged AEP (V18 to Y433 residues) using Z-Ala-Ala-Asn-Rhl 10-(D-Pro) as substrate incubated for 30 mins followed by substrate addition by fluorescence based microplate reader analysis

| Compound | IC50 |
| --- | --- |
| C#Cc1ccc(C2(C(=O)N3CCC[C@H]3C(=O)NN(CC(N)=O)C(=O)CF)CC2)cc1 | 1 nM |
| C#CCOc1ccc(C2(C(=O)N3CCC[C@H]3C(=O)NN(CC(N)=O)C(=O)CF)CC2)cc1 | 1 nM |
| COc1ccc(-c2ccc(S(=O)(=O)N3CCC[C@H]3C(=O)NN(CC(N)=O)C(=O)CF)cc2)cc1 | 1 nM |
| NC(=O)CN(NC(=O)[C@@H]1CCCN1C(=O)C1(c2ccc(Cl)cc2)CCC1)C(=O)CF | 1 nM |
